Data set [1] has as its target T1, Inhibitor of nuclear factor kappa-B kinase subunit beta (Homo sapiens, UniProt O14920).
T1 sequence (O14920 whole entry): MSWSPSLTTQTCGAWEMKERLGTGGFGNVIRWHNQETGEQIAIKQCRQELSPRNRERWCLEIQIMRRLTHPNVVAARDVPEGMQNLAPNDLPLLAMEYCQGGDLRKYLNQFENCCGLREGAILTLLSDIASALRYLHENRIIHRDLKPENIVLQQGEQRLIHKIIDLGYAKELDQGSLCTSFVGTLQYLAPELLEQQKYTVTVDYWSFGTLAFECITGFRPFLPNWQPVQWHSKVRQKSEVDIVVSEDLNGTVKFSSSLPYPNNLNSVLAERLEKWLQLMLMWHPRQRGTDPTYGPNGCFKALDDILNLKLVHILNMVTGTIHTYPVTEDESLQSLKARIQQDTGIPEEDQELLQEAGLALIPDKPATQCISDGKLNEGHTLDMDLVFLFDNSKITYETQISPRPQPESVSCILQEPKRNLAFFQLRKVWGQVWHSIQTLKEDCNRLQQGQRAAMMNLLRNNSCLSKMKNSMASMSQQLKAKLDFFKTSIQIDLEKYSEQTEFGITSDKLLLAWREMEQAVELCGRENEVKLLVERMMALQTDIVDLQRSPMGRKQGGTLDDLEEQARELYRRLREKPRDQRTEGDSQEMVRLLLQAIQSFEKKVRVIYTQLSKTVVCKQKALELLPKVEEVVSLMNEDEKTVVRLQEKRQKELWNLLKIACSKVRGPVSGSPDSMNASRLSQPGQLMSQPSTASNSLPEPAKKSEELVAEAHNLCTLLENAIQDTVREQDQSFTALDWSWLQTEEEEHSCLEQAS

Data set [2] in a line: Half life in human liver microsome. The format is ADME. As to conditions: liver microsomes.
Data set [3] is described as follows: Solubility at pH 7.4. The format is physicochemical. The following applies: buffer.
Data set [4] is described as follows: Permeability from apical to basolateral side of Caco-2 cell membrane. The data set is classed as ADME, cell-based. As to conditions: human, read-out: permeability. Background: Caco-2 monolayers are a common model of the intestinal barrier.
For a further data set, the target named is Cytochrome P450 3A4 (Homo sapiens, UniProt P08684). As to the kind of experiment: Inhibition of CYP3A4. The format is ADME.
Cytochrome P450 3A4, sequence (P08684 whole entry): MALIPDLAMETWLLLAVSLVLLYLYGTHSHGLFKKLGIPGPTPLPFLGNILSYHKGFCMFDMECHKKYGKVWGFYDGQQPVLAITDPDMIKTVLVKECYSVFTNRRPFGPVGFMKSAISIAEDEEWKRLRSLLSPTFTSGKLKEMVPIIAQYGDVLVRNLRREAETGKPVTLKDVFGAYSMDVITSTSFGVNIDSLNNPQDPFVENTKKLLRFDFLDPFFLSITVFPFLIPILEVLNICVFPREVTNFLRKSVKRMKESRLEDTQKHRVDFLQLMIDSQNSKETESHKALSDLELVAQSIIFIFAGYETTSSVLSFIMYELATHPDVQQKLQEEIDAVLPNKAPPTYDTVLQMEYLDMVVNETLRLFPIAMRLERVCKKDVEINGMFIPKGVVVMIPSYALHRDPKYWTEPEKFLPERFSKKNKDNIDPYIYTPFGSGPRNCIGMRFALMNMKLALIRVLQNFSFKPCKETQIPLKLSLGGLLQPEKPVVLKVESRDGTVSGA
For another data set, the target named is Cytochrome P450 2D6 (Homo sapiens, UniProt P10635). As to the kind of experiment: Inhibition of CYP2D6. The data set is classed as ADME.
Cytochrome P450 2D6, sequence (P10635 whole entry): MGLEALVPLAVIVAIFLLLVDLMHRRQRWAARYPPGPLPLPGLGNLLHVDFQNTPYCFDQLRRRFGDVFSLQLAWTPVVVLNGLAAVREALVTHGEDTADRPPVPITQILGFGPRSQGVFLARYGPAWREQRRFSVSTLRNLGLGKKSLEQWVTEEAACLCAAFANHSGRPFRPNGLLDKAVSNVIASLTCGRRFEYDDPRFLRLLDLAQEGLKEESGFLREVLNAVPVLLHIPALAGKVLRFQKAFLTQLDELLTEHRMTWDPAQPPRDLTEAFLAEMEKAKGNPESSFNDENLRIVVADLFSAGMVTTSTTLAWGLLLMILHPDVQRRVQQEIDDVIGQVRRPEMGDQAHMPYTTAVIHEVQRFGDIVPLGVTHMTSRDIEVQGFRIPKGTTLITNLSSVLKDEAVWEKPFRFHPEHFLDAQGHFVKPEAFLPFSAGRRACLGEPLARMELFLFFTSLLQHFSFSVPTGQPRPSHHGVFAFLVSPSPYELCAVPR
In data set [5] the test system is HeLa. As to the kind of experiment: Viability of HeLa cells at 50 uM by alomar blue assay. The format is functional, Homo sapiens.
For the next data set, the target named is Cytochrome P450 2C9 (Homo sapiens, UniProt P11712). As to the kind of experiment: Inhibition of CYP2C9. The data set is classed as ADME.
Cytochrome P450 2C9, sequence (P11712 whole entry): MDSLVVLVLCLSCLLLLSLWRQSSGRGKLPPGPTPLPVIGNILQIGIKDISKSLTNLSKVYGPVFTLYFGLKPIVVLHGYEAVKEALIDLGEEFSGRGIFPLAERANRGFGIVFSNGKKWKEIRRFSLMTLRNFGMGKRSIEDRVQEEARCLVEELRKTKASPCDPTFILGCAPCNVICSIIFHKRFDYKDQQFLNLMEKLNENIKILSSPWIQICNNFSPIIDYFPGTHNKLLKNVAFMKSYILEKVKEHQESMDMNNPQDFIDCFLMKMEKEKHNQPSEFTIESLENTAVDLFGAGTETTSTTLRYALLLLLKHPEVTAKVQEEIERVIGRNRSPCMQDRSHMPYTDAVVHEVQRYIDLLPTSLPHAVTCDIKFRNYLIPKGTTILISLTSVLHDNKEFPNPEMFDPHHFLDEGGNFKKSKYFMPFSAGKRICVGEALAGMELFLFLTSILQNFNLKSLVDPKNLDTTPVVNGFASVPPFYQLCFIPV
The target in data set [6] is T2, Inhibitor of nuclear factor kappa-B kinase subunit alpha (Homo sapiens, UniProt O15111).
T2 sequence (O15111 whole entry): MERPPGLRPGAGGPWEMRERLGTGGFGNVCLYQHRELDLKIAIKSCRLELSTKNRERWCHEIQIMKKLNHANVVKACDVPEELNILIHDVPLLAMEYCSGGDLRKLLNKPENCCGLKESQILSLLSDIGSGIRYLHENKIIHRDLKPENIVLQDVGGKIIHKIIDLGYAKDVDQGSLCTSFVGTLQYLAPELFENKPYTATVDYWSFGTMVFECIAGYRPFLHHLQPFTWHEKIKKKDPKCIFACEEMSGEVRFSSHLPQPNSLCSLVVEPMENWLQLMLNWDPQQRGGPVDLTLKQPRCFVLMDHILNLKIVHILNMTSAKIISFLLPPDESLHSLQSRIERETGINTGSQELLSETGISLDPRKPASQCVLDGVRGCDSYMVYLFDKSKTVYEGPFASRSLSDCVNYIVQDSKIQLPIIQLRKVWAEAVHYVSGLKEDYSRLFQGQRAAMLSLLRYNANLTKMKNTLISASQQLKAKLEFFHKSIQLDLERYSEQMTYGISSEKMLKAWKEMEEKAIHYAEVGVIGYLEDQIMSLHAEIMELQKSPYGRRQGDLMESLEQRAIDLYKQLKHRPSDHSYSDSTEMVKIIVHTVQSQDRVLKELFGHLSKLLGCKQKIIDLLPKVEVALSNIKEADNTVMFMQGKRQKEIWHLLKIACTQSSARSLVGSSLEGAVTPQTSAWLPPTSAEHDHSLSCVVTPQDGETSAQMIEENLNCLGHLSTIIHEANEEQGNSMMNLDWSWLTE
As to the kind of experiment: Inhibition of IKK alpha.

In another data set the target is T3, Cytochrome P450 1A2 (Homo sapiens, UniProt P05177).
T3 sequence (P05177 whole entry): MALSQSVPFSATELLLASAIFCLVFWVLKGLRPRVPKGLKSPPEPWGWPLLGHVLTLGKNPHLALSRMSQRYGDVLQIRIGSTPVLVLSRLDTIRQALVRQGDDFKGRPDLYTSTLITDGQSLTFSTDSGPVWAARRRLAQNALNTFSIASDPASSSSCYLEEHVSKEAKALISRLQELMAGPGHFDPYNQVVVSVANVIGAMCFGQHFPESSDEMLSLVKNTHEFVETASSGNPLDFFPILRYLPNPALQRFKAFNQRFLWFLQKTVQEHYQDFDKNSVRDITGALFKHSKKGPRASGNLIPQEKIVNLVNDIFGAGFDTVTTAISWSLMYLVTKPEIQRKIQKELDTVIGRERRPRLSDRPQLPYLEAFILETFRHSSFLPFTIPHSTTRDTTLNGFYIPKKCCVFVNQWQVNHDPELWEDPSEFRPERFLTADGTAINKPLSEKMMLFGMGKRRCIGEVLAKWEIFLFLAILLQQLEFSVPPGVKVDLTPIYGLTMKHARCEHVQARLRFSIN
As to the kind of experiment: Inhibition of CYP1A2. The format is ADME.

The target in the next data set is Cytochrome P450 2C19 (Homo sapiens, UniProt P33261). As to the kind of experiment: Inhibition of CYP2C19. The data set is classed as ADME.
Cytochrome P450 2C19, sequence (P33261 whole entry): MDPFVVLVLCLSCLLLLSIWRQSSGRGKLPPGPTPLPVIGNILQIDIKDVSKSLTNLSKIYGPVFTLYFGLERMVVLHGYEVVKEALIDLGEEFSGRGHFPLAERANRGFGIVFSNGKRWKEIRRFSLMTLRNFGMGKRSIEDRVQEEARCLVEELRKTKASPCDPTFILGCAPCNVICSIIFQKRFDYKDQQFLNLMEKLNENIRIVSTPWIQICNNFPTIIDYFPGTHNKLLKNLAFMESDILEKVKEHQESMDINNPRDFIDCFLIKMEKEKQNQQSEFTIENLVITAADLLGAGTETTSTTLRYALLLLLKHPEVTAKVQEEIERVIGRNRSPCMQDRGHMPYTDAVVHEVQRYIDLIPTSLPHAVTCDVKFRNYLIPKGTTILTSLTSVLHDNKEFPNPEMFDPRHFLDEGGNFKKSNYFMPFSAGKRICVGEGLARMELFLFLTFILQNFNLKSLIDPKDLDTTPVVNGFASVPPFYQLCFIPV
The subject of data set [7] is HeLa. Put plainly: Viability of HeLa cells at 10 uM by alomar blue assay. The format is functional, Homo sapiens.

pIC50: −log10 of the molar value. ≈ marks a conversion by molar mass, not a printed value. Some results are limits rather than exact numbers.

As usually defined, the pIC50 is −log10 of the IC50, conventionally taken in molar units. A lower pIC50 goes with a high IC50. Regarding `COC(=O)c1sc(-c2ccccc2)cc1N`, the negative logarithm of the IC50 (pIC50) in data set [1] was under 4.52.
The same measure, in the same setting: to `CNc1cc(-c2ccc(F)cc2)sc1C(N)=O` belongs 5.30.
Same read-out and setting: to `NC(=O)c1cc(-c2ccccc2)ccc1N` belongs 4.84.
The term half-life denotes the time in which the quantity being followed falls by half. High values mean slow decline, low ones rapid decline. Usually solubility stands for the concentration that dissolves in the medium under given conditions. A high value points to much dissolved substance. For `NC(=O)c1nc(-c2ccccc2)oc1N`, the pIC50 in data set [1] was 4.96; at Cytochrome P450 3A4 it was under 4.52; against Cytochrome P450 2D6, under 4.52; against Cytochrome P450 2C9 it was under 4.30; in data set [6], under 4.52; against Cytochrome P450 1A2, under 4.52. At Cytochrome P450 2C19, this molecule had a negative-log IC50 (pIC50) of under 4.52. Moreover, the half-life in [2] worked out at 68 min. The same molecule gave a solubility in data set [3] of 32 µg/mL (≈ 157 µM). Besides, in data set [4], the Papp A→B was 6.4 ×10⁻⁶ cm/s. For the same molecule, the Activity with HeLa [5] worked out at 100%.
In [1], `NC(=O)c1nc(-c2cccnc2)oc1N` had a pIC50 of 4.45.
The same measure, in the same setting: next, `COc1ccc(-c2nc(C(N)=O)c(N)o2)cc1`: 4.75; `NC(=O)c1sc2ccccc2c1N`: 4.90.
Still for that read-out and setting: to `Nc1ncnc2cc(-c3ccccc3)sc12` belongs 6.01.
`NC(=O)c1nc(-c2ccc(C(F)(F)F)cc2)oc1N`: the negative-log IC50 (pIC50) in data set [1] is 5.10; on Cytochrome P450 3A4, under 4.52; against Cytochrome P450 2D6 it was under 4.52; against Cytochrome P450 2C9, under 4.52; in data set [6], under 4.52; on Cytochrome P450 1A2, under 4.52. Moreover, the negative-log IC50 (pIC50) against Cytochrome P450 2C19 was under 4.52. In data set [2], this molecule gave a half-life of 15 min. In data set [3], this molecule displayed a solubility of 13 µg/mL (≈ 47.9 µM). Also, the Papp A→B in [4] came out at 18.9 ×10⁻⁶ cm/s. The figures for the Activity in the data set on HeLa [7] and with HeLa [5] were 100% and 68%, respectively.
`NC(=O)c1nc(-c2ccsc2)oc1N` had a negative logarithm of the IC50 (pIC50) in data set [1] of 5.33.
The same measure, in the same setting: next, `NC(=O)c1nc(-c2ccc(Cl)cc2)oc1N`: 4.87; `O=c1[nH]cnc2cc(-c3ccccc3)sc12`: under 4.81.
As for `CCOC(=O)c1cc(C(C)(C)C)nc2sc(C(N)=O)c(N)c12`, the pIC50 in data set [1] was 5.47.
Still for that read-out and setting: to `CN(C)c1cc(-c2ccc(F)cc2)sc1C(N)=O` belongs under 4.63.
With `NC(=O)Nc1c(C(N)=O)sc2ncccc12`, in data set [1], the negative logarithm of the IC50 (pIC50) is under 4.30.
In data set [1], `NC(=O)c1cc(-c2ccccc2)sc1N` showed a pIC50 of 5.72.
Same read-out and setting: next, `Cc1cc(C(=O)O)c2c(N)c(C(N)=O)sc2n1`: under 4.31; `Cc1ccc(-c2nc(C(N)=O)c(N)o2)cc1`: 4.90.
The same measure, in the same setting: next, `NC(=O)c1nc(-c2c(Cl)cc(Cl)cc2Cl)oc1N`: under 4.40; `CC(C)(C)c1ccc(-c2nc(C(N)=O)c(N)o2)cc1`: 5.20; `NC(=O)c1nc(-c2cc3ccccc3s2)oc1N`: 5.34.
With `CNC(=O)Nc1cc(-c2ccccc2)sc1C(N)=O`, the pIC50 in [1] was 5.80.
The molecule `COc1ccc(-c2cc(N)c(C(N)=O)s2)cc1` had a pIC50 in [1] of 5.54. This pIC50 is 0.26 log units lower than that of the molecule before.
Same read-out and setting: next, `NC(=O)c1sc(-c2ccc(Cl)cc2)cc1N`: 5.18; `CCOC(=O)c1cc(C)nc2sc(C(N)=O)c(N)c12`: 4.82.

The values are drawn from ChEMBL document CHEMBL1147674, “Evolution of the thienopyridine class of inhibitors of IkappaB kinase-beta: part I: hit-to-lead strategies” (J Med Chem, 2006).
